Like-named read-outs stand apart in the source and are kept apart here.
Experiments:
Format in all cases: cell-based
spermatozoa [1] = assay: total spermicidal test of IPPF (death of all spermatozoa of 0.2 ml sperm in less than 5 seconds); details: for MIC: 5 seconds
Description: The MIC of a chemical compound depends on this compound, but also on the conditions in which it is used, i.e. on the galenical form including the composition.
(§1) The test is carried out on at least 6 sperms from various donors, satisfying the following minimal conditions from IPPF:
age of the sample: two hours;
[…] : 50 million spermatozoa;
mobility: 50% of the spermatozoa should move forward fastly when examined at 35°-37° C. in a recent sample;
viscosity: ejaculum conveniently liquefied, not filaceous and homogeneous-looking with the naked eye;
collected in sterile glass tubes hermetically closed, preserved at 37° C.
The MIC of various known spermicidal compounds were determined with the IPPF test. The following results have been obtained by 1 milliliter of composition reacting with 0.2 milliliter of sperm and by determining the minimal concentration of the spermicidal compounds that induces the death of all the spermatozoa in 5 seconds, and this with 6 sperms from various donors.
The same total spermicidal test of IPPF was carried out with 1 milliliter of composition already containing 0.0001% (in weight) of fluoride anion F^- reacting upon 0.2 milliliter of sperm, by determining the minimal concentration of the spermicidal compounds that induces the death of all the spermatozoa in 5 seconds, and this with 6 sperms from various donors.
This test consists in realizing a test identical to tests N^.
Under the same conditions previously described (Tests N^. 1 to 3), various perfluorinated benzalkonium chlorides were used as basic spermicidal compounds. It was thus shown that perfluorinated benzalkonium chlorides have a spermicide activity similar to the one of the mere benzalkonium chloride. Besides, this activity remains identical to itself under the conditions of test N^.
Test N^. 2 was also realized on perfluorinated benzalkonium chloride mixed with another chemical compound capable of emitting ion F^-.

spermatozoa [2] = assay: IPPF spermicidal test on galenical preparations after in vitro simulation of in vivo conditions; details: Test 5, without activating ingredient
spermatozoa [3] = assay: as above; details: Test 6, form originally containing 0.45% F^-
Description: as §1
This test in vitro was conducted on galenical preparations including benzalkonium chloride as basic active ingredient, by determining the MIC of this benzalkonium chloride after simulation in vitro of the actual conditions in vivo (extraction, solubilization . . . ).
The percentages correspond to the proportions (in weight) of benzalkonium chloride in the solution used in vitro for the spermicidal test according to IPPF and obtained after simulation, the proportions being measured by titrating using a sample taken off from the solution.
The same conditions as during the comparative test N^. 5 were used, but from galenical forms each originally containing 0.45% (in weight) of fluoride anion F^-.

cells [4] = assay: Study of threshold of cytotoxicity (LDO)
poliomyelitis virus = details: LiF, where present, 1 mg/l
cells [5] = assay: Cell toxicity (Test 16); details: cytomegalo virus section
Text: The following results were obtained:

[6] = Test 1, without F^-, 6 sperms from various donors
[7] = Test 2, composition already containing 0.0001% (in weight) fluoride anion F^-, 6 sperms
[8] = final concentration 20 mg/l, contact time 180 min
[9] = final concentration 50 mg/l, contact time 180 min
[10] = final concentration 100 mg/l, contact time 30 min
[11] = final concentration 100 mg/l, contact time 60 min
[12] = final concentration 100 mg/l, contact time 120 min
[13] = final concentration 100 mg/l, contact time 180 min

Compound: F [fluoride anion F^-]
- spermicide activity (spermatozoa [1]; IPPF test, at a titer of 5 ppm (5 milligrams per liter), 0.0833333 min): 100%
- spermicidal effect in presence of sodium borate (spermatozoa [1]; Test 3, sodium borate to complex ion F^-): totally disappeared
- total spermicide activity according to the IPPF test (spermatozoa [1]; solution containing 0.0001% fluoride anion F^- alone): do not have a total spermicide activity

Compound: Benzalkonium chloride
- MIC of benzalkonium chloride (spermatozoa [2]; galenical form: cream): 0.0083 % in weight
- MIC of benzalkonium chloride (spermatozoa [2]; galenical form: gel): 0.0080 % in weight
- MIC of benzalkonium chloride (spermatozoa [2]; galenical form: ovule): 0.0063 % in weight
- MIC of benzalkonium chloride (spermatozoa [2]; galenical form: soluble waffle): 0.0080 % in weight
- MIC of benzalkonium chloride (spermatozoa [2]; galenical form: tablet): 0.0095 % in weight
- MIC of benzalkonium chloride (spermatozoa [2]; galenical form: tampon): 0.0075 % in weight
- MIC of benzalkonium chloride (spermatozoa [3]; galenical form: cream): 0.0030 % in weight
- MIC of benzalkonium chloride (spermatozoa [3]; galenical form: gel): 0.0033 % in weight
- MIC of benzalkonium chloride (spermatozoa [3]; galenical form: ovule): 0.0023 % in weight
- MIC of benzalkonium chloride (spermatozoa [3]; galenical form: soluble waffle): 0.0017 % in weight
- MIC of benzalkonium chloride (spermatozoa [3]; galenical form: tablet): 0.0025 % in weight
- MIC of benzalkonium chloride (spermatozoa [3]; galenical form: tampon): 0.0025 % in weight
- MIC (spermatozoa [1]; [6]): 0.006 % in weight
- MIC (spermatozoa [1]; [7]): 0.002 % in weight
- total spermicide activity according to the IPPF test (spermatozoa [1]; solution containing 0.003% benzalkonium chloride alone): do not have a total spermicide activity
- threshold of cytotoxicity (LDO) (cells [4]; after filtration): 0.01%
- threshold of cytotoxicity (LDO) (cells [4]; before filtration): 0.05%
- Viral titre (poliomyelitis virus; final concentration 10 mg/l, contact time 180 min): ≈ 0 PFU/ml
- Viral titre (poliomyelitis virus; [8]): 0 PFU/ml
- Viral titre (poliomyelitis virus; [9]): 0 PFU/ml
- Viral titre (poliomyelitis virus; [10]): 0 PFU/ml
- Viral titre (poliomyelitis virus; [11]): 0 PFU/ml
- Viral titre (poliomyelitis virus; [12]): 0 PFU/ml
- Viral titre (poliomyelitis virus; [13]): 0 PFU/ml
- Cell Toxicity (cells [5]): 0.05%

Compound: Benzalkonium fluoride
- threshold of cytotoxicity (LDO) (cells [4]; after filtration): 0.005%
- threshold of cytotoxicity (LDO) (cells [4]; before filtration): 0.01%
- Viral titre (poliomyelitis virus; [8]): 0 PFU/ml
- Viral titre (poliomyelitis virus; final concentration 50 mg/l, contact time 120 min): 0 PFU/ml
- Viral titre (poliomyelitis virus; [9]): 0 PFU/ml
- Viral titre (poliomyelitis virus; [10]): 0 PFU/ml
- Viral titre (poliomyelitis virus; [11]): 0 PFU/ml
- Viral titre (poliomyelitis virus; [12]): 0 PFU/ml
- Viral titre (poliomyelitis virus; [13]): 0 PFU/ml
- Cell Toxicity (cells [5]): 0.05%

Compound: nonoxynol 9
- MIC (spermatozoa [1]; [6]): 0.006 % in weight
- MIC (spermatozoa [1]; [7]): 0.003 % in weight

Compound: p-menthanylphenylpolyoxyethylene ether
- MIC (spermatozoa [1]; [6]): 0.006 % in weight
- MIC (spermatozoa [1]; [7]): 0.003 % in weight

— patent US5458889A (priority 1986, dated 1995)
